Assay results from patent US10301304B2, “Selective inhibitor of phosphatidylinositol 3-kinase-gamma” (VERTEX PHARMACEUTICALS INCORPORATED, priority 2013, dated 2019).
Like-named read-outs stand apart in the source and are kept apart here.

How the values were obtained:
[1] = tested on: MCP-1 stimulated pAkt in THP-1 cells (PI3K-gamma); assay: MCP-1 Stimulated pAkt in THP-1 Cells; assay type: cell-based; details: Homo sapiens
Description: Chemokines like MCP-1 bind to their receptors resulting in activation of the PI3K-gamma signaling pathway. PI3K-gamma leads to generation of PIP3 and activation of downstream molecules like PDK-1 and Akt. Akt phosphorylation is a measure of PI3K activity in the cell. In this assay, THP-1 cells (human monocytic cell line) are starved overnight to deplete pAkt levels. Subsequent stimulation with MCP-1 for 3 minutes leads to PI3K-gamma-induced phoshorylation of Akt at the Threonin 308 and Serine 473 sites. Cells were fixed and stained for intracellular phosphoAKT (Ser 473) then analyzed using a BD FACSCalibur™ cytometer resulting in a measure of cellular PI3K-gamma activity.

[2] = tested on: whole blood neutrophils and monocytes (PI3K-gamma); assay: Whole Blood oxidative burst; assay type: cell-based; details: presence of serum, read-out: IC50 Average ± Standard Deviation
Excerpt: Neutrophils, monocytes and macrophages are key mediators of innate immunity. They release reactive oxygen species (ROS) as part of the innate immune inflammatory response. ROS production is induced by inflammatory mediators like chemokines, bacterial peptides and complement that recruit the innate immune cells to the site of inflammation. These inflammatory mediators trigger activation of PI3K-gamma and initiate a downstream signaling cascade that leads to the assembly of the complete NADPH oxidase complex at the plasma membrane generating ROS. PI3K-gamma functional activity was measured in whole blood and huffy coat neutrophils and monocytes via the generation of ROS. The cells are stimulated with TNF-alpha for 10 minutes, then with bacterial cell wall-derived chemotactic peptide, fMLP, for 20 minutes, and loaded with a non-fluorescent dye […] (DHR). ROS produced by the cells oxidizes DHR to fluorescent rhodamine causing an increase in fluorescent rhodamine content in the cells. PI3K-gamma functional activity is measured by the ability of neutrophils and monocytes to generate ROS following fMLP stimulation. Leukocytes and whole blood samples were analyzed on a BD FACSCalibur™ to quantitate cells positive for fluorescent rhodamine. Buffy coat cells generate IC50S in the absence of serum and whole blood assay generates IC50S in the presence of serum.

CYP3A4 = CYP3A4 Induction in Human Hepatocytes; assay type: in vitro ADME
Description: CYP activity was determined by monitoring metabolite formation of specific CYP probe substrates (phenacetin for CYP1A2 and testosterone for CYP3A4) using LC-MS/MS. CYP messenger ribonucleic acid (mRNA) was analyzed by RT-PCR to confirm CYP induction potential.

[3] = Intravenous bolus pharmacokinetics; assay type: in vivo, Rat; details: for AUC: rat, iv, 0.5 mg/kg
Excerpt: Following intravenous administration of a single bolus dose, Compound 1 had low systemic clearance and a long half-life in all species tested. […] The volume of distribution was greater than the total body water, indicating distribution of Compound 1 to tissues.

CYP1A2 = CYP1A2 (Homo sapiens, UniProt P05177); assay: Inhibition of CYP Enzymes in Human Liver Microsomes; assay type: in vitro ADME; design: from tissue; host or cells: human liver microsomes; details: CYP1A2, 30 μM Phenacetin
Chain of CYP1A2 (P05177 whole entry): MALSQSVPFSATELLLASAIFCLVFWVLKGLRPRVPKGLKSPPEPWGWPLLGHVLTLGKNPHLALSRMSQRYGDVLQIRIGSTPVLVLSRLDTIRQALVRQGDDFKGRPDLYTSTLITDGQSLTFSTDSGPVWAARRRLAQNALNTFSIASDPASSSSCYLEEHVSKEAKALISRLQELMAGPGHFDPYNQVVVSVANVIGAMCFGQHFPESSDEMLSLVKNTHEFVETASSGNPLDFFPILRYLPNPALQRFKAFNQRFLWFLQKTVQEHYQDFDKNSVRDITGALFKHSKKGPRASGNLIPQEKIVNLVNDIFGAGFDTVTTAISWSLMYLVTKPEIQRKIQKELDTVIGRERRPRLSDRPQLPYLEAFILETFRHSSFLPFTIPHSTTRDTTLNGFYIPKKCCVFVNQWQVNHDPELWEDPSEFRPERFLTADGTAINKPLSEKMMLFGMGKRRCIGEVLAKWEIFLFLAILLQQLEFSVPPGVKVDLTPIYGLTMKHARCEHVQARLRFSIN
Description: (§1) Inhibition assays were conducted with selective CYP probes for each CYP enzyme at specific concentrations of substrate (close to its dissociation constant (Km) value). Compound 1 was a moderate inhibitor of CYP 1A2, 2B6 and 2C8; […]

CYP2B6 = CYP2B6 (Homo sapiens, UniProt P20813); assay: as above; assay type: in vitro ADME; design: from tissue; host or cells: human liver microsomes; details: CYP2B6, 100 μM Bupropion
Chain of CYP2B6 (P20813 whole entry): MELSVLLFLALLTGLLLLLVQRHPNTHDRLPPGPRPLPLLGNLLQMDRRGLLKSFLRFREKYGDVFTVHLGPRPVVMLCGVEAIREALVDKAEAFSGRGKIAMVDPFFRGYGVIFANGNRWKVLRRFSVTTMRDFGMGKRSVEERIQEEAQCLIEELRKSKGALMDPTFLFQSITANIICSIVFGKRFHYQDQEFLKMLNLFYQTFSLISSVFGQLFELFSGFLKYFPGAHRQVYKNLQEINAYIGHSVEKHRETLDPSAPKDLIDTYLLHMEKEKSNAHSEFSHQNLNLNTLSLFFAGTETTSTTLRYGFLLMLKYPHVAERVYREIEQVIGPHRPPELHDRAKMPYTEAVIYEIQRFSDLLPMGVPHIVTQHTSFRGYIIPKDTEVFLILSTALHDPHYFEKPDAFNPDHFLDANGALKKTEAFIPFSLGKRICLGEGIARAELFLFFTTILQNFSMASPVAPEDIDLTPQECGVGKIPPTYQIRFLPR
Description: as §1

CYP2C19 = CYP2C19 (Homo sapiens, UniProt P33261); assay: as above; assay type: in vitro ADME; design: from tissue; host or cells: human liver microsomes; details: CYP2C19, 30 μM S-Mephenytoin
Chain of CYP2C19 (P33261 whole entry): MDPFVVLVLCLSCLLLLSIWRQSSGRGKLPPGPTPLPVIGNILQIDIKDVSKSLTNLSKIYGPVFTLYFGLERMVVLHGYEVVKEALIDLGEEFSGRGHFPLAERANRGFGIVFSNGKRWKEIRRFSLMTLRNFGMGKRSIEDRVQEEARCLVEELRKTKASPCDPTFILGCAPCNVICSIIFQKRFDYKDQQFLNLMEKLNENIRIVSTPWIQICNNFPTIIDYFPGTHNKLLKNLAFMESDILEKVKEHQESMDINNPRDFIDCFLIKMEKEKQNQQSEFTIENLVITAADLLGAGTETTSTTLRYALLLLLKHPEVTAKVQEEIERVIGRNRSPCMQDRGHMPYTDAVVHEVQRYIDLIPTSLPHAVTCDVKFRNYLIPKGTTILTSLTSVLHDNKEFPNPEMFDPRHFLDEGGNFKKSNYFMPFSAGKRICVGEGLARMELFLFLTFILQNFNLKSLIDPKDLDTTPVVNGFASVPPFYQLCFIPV
Description: as §1

CYP2C8 = CYP2C8 (Homo sapiens, UniProt P10632); assay: as above; assay type: in vitro ADME; design: from tissue; host or cells: human liver microsomes; details: CYP2C8, 2.5 μM Paclitaxel
Chain of CYP2C8 (P10632 whole entry): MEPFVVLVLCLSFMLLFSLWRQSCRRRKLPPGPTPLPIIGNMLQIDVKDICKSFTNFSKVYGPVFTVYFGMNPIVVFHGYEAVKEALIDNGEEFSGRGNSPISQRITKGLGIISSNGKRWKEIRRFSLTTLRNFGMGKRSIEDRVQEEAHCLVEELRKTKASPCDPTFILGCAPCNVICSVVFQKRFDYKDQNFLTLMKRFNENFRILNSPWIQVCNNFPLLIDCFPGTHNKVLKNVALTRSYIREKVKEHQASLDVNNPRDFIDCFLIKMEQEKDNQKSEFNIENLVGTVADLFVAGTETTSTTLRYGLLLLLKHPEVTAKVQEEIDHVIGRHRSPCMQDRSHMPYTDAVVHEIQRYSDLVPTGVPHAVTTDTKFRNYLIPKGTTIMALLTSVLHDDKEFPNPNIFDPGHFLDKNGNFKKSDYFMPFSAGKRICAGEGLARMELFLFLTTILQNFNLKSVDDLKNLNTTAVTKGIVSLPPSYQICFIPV
Description: as §1

CYP2C9 = CYP2C9 (Homo sapiens, UniProt P11712); assay: as above; assay type: in vitro ADME; design: from tissue; host or cells: human liver microsomes; details: CYP2C9, 2.5 μM Diclofenac
Chain of CYP2C9 (P11712 whole entry): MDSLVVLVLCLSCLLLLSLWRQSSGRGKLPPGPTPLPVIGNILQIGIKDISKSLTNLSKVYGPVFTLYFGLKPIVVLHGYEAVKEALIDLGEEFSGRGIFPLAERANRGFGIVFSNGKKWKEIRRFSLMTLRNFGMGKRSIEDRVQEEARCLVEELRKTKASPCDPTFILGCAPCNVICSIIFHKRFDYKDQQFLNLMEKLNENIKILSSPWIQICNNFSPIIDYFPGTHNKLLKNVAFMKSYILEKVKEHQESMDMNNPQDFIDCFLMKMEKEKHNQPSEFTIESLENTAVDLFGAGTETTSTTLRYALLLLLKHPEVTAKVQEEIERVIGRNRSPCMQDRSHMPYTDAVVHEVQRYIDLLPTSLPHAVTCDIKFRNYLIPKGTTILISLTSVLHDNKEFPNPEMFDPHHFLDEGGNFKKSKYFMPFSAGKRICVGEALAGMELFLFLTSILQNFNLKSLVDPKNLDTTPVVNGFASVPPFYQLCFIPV
Description: as §1

CYP2D6 = CYP2D6 (Homo sapiens, UniProt P10635); assay: as above; assay type: in vitro ADME; design: from tissue; host or cells: human liver microsomes; details: CYP2D6, 10 μM Bufuralol
Chain of CYP2D6 (P10635 whole entry): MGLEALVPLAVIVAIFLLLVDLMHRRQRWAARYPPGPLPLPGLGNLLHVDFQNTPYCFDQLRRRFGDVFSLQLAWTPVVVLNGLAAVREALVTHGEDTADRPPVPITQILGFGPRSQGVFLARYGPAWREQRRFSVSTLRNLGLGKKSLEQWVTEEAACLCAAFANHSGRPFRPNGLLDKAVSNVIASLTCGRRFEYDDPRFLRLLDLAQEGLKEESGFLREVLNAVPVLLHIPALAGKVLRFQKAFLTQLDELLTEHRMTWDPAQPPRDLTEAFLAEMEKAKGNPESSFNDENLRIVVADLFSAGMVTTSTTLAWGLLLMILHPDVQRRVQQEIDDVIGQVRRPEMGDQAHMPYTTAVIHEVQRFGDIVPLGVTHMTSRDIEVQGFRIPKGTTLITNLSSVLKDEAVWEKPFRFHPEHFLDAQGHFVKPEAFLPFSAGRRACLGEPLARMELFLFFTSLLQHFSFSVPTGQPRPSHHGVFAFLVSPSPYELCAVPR
Description: as §1

[4] = Rat, single IV bolus, 0.5 mg/kg nominal
[5] = plasma, Rat, single IV bolus, 0.5 mg/kg nominal

Cc1cc(-c2cncc([C@@H](O)C(F)(F)F)c2)nc2c1C(=O)N(c1cnn(CC(F)F)c1)C2(C)C [Compound 1, (R)-6-(1-(2,2-difluoroethyl)-1H-pyrazol-4-yl)-4,7,7-trimethyl-2-(5-(2,2,2-trifluoro-1-hydroxyethyl)pyridin-3-yl)-6,7-dihydro-5H-pyrrolo[3,4-b]pyridin-5-one]
IC50 ([1]; THP-1, summary of cell assays, read-out: potency in PI3K-gamma associated cell assays): 0.25 µM
IC50 ([1]; THP-1/MCP-1/pAkt, PI3K-gamma dependent, read-out: IC50 Average ± Standard Deviation): 0.24 ± 0.07 µM
IC50 [2]: 0.57 µM
CYP3A4 mRNA message (CYP3A4; 0.5 μM, lot 8123): 0.4 fold change
Testosterone-6β-Hydroxylation (CYP3A4; 0.5 μM, lot 8123): 0.3 fold change
CYP3A4 mRNA message (CYP3A4; 0.5 μM, lot LMP): 1.0 fold change
Testosterone-6β-Hydroxylation (CYP3A4; 0.5 μM, lot LMP): 0.9 fold change
CYP3A4 mRNA message (CYP3A4; 0.5 μM, lot YOW): 1.3 fold change
Testosterone-6β-Hydroxylation (CYP3A4; 0.5 μM, lot YOW): 1.0 fold change
CYP3A4 mRNA message (CYP3A4; 1.0 μM, lot 8123): 0.3 fold change
Testosterone-6β-Hydroxylation (CYP3A4; 1.0 μM, lot 8123): 0.5 fold change
CYP3A4 mRNA message (CYP3A4; 1.0 μM, lot LMP): 0.7 fold change
Testosterone-6β-Hydroxylation (CYP3A4; 1.0 μM, lot LMP): 0.8 fold change
CYP3A4 mRNA message (CYP3A4; 1.0 μM, lot YOW): 0.2 fold change
Testosterone-6β-Hydroxylation (CYP3A4; 1.0 μM, lot YOW): 0.8 fold change
CYP3A4 mRNA message (CYP3A4; 5.0 μM, lot 8123): 0.5 fold change
Testosterone-6β-Hydroxylation (CYP3A4; 5.0 μM, lot 8123): 0.4 fold change
CYP3A4 mRNA message (CYP3A4; 5.0 μM, lot LMP): 1.1 (1.1) fold change
Testosterone-6β-Hydroxylation (CYP3A4; 5.0 μM, lot LMP): 1.1 (1.1) fold change
Testosterone-6β-Hydroxylation (CYP3A4; 5.0 μM, lot YOW): 0.9 (NR^1) fold change
CYP3A4 mRNA message (CYP3A4; 10.0 μM, lot 8123): 1.1 fold change
Testosterone-6β-Hydroxylation (CYP3A4; 10.0 μM, lot 8123): 0.4 fold change
CYP3A4 mRNA message (CYP3A4; 10.0 μM, lot LMP): 1.5 fold change
Testosterone-6β-Hydroxylation (CYP3A4; 10.0 μM, lot LMP): 1.1 fold change
Testosterone-6β-Hydroxylation (CYP3A4; 10.0 μM, lot YOW): 0.8 (NR^1) fold change
CYP3A4 mRNA message (CYP3A4; 20.0 μM, lot 8123): 0.7 fold change
Testosterone-6β-Hydroxylation (CYP3A4; 20.0 μM, lot 8123): 0.6 fold change
CYP3A4 mRNA message (CYP3A4; 20.0 μM, lot LMP): 3.0 fold change
Testosterone-6β-Hydroxylation (CYP3A4; 20.0 μM, lot LMP): 1.4 fold change
Testosterone-6β-Hydroxylation (CYP3A4; 20.0 μM, lot YOW): 0.6 (NR^1) fold change
Testosterone-6β-Hydroxylation (CYP3A4; 30.0 μM, lot 8123): 0.7 (NR^2) fold change
CYP3A4 mRNA message (CYP3A4; 30.0 μM, lot LMP): 2.5 fold change
Testosterone-6β-Hydroxylation (CYP3A4; 30.0 μM, lot LMP): 1.0 fold change
Testosterone-6β-Hydroxylation (CYP3A4; 30.0 μM, lot YOW): 0.6 (NR^1) fold change
change in CYP3A4 activity and mRNA levels, % of the positive control (CYP3A4; all three hepatocyte lots, 48 hour exposure): less than 20%
% HBF (hepatic blood flow) [3, 4]: ~3.6%
DN_AUCINF [3, 4]: 6200 ng·h/mL
AUC(0-inf) [3, 5]: 3100 ng·h/mL
half-life [3, 5]: 8.2 h
clearance ([3]; plasma, Rat, single IV bolus, 0.5 mg/kg nominal, read-out: CL): 2.8 mL/min/kg
Vd ([3]; plasma, Rat, single IV bolus, 0.5 mg/kg nominal, read-out: Vss): 1.8 L/kg
AUC ([3]; plasma, Intravenous bolus, 0.5 mg/kg nominal dose, read-out: Rat IV AUC): 3100 ng·h/mL
AUC ([3]; plasma, Rat, single IV bolus, 0.5 mg/kg nominal, read-out: AUCALL): 2690 ng·h/mL
IC50 (CYP1A2): 7 µM
IC50 (CYP2B6): 4 µM
IC50 (CYP2C19): 21 µM
IC50 (CYP2C8): 7 µM
IC50 (CYP2C9): 32 µM
IC50 (CYP2D6): 64 µM
